Test results reported in PMC7261837, “Circumdatin D Exerts Neuroprotective Effects by Attenuating LPS-Induced Pro-Inflammatory Responses and Downregulating Acetylcholinesterase Activity In Vitro and In Vivo” (Frontiers in Pharmacology, 2020).

How the values were obtained:
[1] = test system: BV-2 cells; experiment: LPS-induced NO production in BV-2 cells (Griess method); format: cell-based, murine; conditions: 1 μg/ml LPS, 24 h
Protocol: BV-2 cells (murine microglia cell line) was obtained from Peking Union Medical College, Cell Bank (Beijing, China) and maintained in DMEM containing 10% FBS. Cells were grown in a humidified atmosphere of 5% CO2 incubator at 37°C.
BV2 cells were seeded and incubated overnight, and followed by treatment with different doses of circumdatins for indicated period with or without LPS (1 μg/ml) stimulation. The cells without circumdatins and LPS treatment were used as the control group.
The NO levels in culture media was determined using a Griess method. Cells were treated with different concentrations of circumdatins in the presence or absence of LPS for 24 h. After that, the supernatant fraction of the culture media was collected and mixed with the same volume of Griess reagent (1% sulfanilamide/0.1% naphthyl ethylene diamine dihydrochloride/2% H3PO4). Then, the absorbance was measured at 540 nm using a microplate spectrophotometer (Thermo Scientifics, USA). The concentration of nitrite was calculated from a calibration curve obtained from standards sodium nitrite solutions.

[2] = test system: NF-κB; experiment: NF-κB luciferase reporter assay; format: cell-based; conditions: Homo sapiens; SW480 cells stably transfected with NF-κB luciferase reporter gene, induced by LPS; mean ± SD (n = 3); read-out: NF-κB Activation IC50
Protocol: SW480-NF-κB cells were seeded at a density of 5 × 10^4 cells/well in 24-well plates and incubated with circumdatins with or without LPS stimulation for 6 h. The κB-dependent luciferase reporter activity in cell extracts was monitored using an automated microplate reader.

[3] = biological target: T1, acetylcholinesterase (AChE) from Electrophorus electrics (Electric eel) (Electrophorus electricus, UniProt O42275); experiment: biochemical; conditions: modified Ellman's colorimetric method; mean ± SD (n = 3)
T1 construct: purchased Sigma Chemical Co. (St Louis, MO, USA)
Text: Dulbecco's modified Eagle medium (DMEM), α-minimum essential medium (α-MEM) and fetal bovine serum (FBS) were provided by Hyclone (Waltham, USA). 3-(4,5-Dimethylthiazol-2-yl)-2,5-diphenyltetrazolium bromide (MTT), acetylcholinesterase (AChE) from Electrophorus electrics (Electric eel) and lipopolysaccharide (LPS) (Escherichia coli 055: B5) were provided by Sigma Chemical Co. (St Louis, MO, USA). Enzyme-linked immunosorbent assay (ELISA) kits for IL-1β and TNF-α and Griess reagent for nitric oxide (NO) assay kit were provided by ExCell Bio (Shanghai, China). Antibodies for TLR4, MyD88, JNK, p-JNK, p38, p-p38, ERK, p-ERK, IκB, p-IκB, IKK, p-IKK, NF-κB, STAT3、p-STAT3、Jak2, p-Jak2, GAPDH and Histone H3 were purchased from Cell Signaling Technology (Danvers, USA). Antibodies for iNOS and COX-2 were provided by Abcam (Cambridge, UK).
AChE activities in vitro and in vivo were assessed by a modified Ellman's spectrophotometric method ([Szwajgier, 2015]). Briefly, AChE (80 μl) in phosphate buffer (Na2HPO4/NaH2PO4, pH 8.0) and compound (20 μl) diluted in same phosphate buffer were added to 96 microplates as the reaction mixture. The mixture was incubated at 37°C for 30 min before addition of 10 μl 5,5′-dithiobis (2-nitrobenzoic acid) (DTNB) (3 mM) and 10 μl acetylthiocholine iodide (ATCI) (15 mM). After incubation for 20 min, the absorbance was detected at 412 nm using a microplate spectrophotometer (Thermo Scientifics, USA). […] The inhibitory rate of AChE was calculated, and the IC50 values were calculated by GraphPad Prism® 5.0 software (GraphPad Inc., San Diego, USA).

[4] = biological target: Recombinant AChE (Homo sapiens, UniProt P22303); experiment: biochemical; conditions: SPR, 25°C, 1:1 Langmuir binding model; read-out: AChE Affinity Kd
Protocol: The experiments for surface plasmon resonance (SPR) interaction were conducted at 25°C using the Biacore T200 system (GE Healthcare, Sweden). Recombinant AChE diluted in sodium acetate buffer (100 mM, pH 4.5) was used as the stock for the following experiments. CM5 sensor chips were coupled with AChE using an amine coupling kit (GE Healthcare, Buckinghamshire, UK). Thereafter, different concentrations of compounds were injected as analytes using PBS-P (10mM phosphate buffer with 2.7 mM KCl and 137 mM NaCl, 0.05% polysorbate 20, […]) as running buffer. For binding assays, the analytes were introduced with a 60 s contact time followed by a 60 s dissociation time at a flow rate of 45 μl/min. The surface was regenerated with 10 mM glycine (pH 3.0) for 30 s. The affinity constants were calculated using the 1:1 Langmuir binding model of Biacore evaluation software (T200 Version 1.0).

T1 sequence (O42275 24-633): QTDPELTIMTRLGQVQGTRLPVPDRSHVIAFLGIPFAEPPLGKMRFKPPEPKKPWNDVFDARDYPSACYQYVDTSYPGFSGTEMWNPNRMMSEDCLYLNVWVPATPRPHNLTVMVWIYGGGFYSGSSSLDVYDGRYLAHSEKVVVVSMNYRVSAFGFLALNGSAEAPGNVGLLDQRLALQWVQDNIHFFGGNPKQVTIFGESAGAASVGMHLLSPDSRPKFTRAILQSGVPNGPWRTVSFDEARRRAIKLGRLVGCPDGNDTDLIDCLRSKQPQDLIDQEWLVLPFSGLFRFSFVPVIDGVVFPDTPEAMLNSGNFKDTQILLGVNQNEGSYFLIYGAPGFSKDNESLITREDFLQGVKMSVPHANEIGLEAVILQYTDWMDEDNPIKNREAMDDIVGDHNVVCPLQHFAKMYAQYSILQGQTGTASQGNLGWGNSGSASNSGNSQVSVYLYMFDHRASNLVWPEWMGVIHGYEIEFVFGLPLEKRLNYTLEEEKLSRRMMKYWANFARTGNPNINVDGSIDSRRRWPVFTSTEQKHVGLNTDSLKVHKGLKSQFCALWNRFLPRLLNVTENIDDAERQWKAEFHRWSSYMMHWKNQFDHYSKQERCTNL
Chain of Recombinant AChE (P22303 32-614): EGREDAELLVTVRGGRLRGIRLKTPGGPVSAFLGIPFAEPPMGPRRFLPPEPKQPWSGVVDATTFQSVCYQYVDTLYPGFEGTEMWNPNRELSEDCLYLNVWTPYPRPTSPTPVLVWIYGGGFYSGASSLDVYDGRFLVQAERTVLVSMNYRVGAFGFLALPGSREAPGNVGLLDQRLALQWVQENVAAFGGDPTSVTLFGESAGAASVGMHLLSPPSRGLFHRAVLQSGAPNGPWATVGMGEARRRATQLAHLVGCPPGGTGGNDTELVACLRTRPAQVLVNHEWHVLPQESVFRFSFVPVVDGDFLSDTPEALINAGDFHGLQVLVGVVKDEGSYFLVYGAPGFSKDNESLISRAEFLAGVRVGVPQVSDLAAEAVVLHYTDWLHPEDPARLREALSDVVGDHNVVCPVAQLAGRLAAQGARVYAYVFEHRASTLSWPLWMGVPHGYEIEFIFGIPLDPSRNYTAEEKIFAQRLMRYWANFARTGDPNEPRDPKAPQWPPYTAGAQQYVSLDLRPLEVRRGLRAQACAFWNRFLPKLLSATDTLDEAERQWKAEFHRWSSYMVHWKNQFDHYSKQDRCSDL

| SMILES | LPS-induced NO production [1] | IC50 [2] [µM] | IC50 [3] [µM] | Kd [4] [µM] |
| --- | --- | --- | --- | --- |
| C[C@@H]1NC(=O)c2cc(O)ccc2-n2c1nc1c(O)cccc1c2=O [circumdatin I] | decreased NO production only in high dose | 18.6 ± 1.9 | 11.6 ± 2.6 | 65 |
| C[C@@H]1NC(=O)c2cc(O)c(O)cc2-n2c1nc1ccccc1c2=O [2-hydroxycircumdatin C] | – | 16.5 ± 1.9 | 5.6 ± 0.9 | 3.6 |
| C[C@@H]1NC(=O)c2ccccc2-n2c1nc1c(O)cccc1c2=O [circumdatin G] | significant reduction of NO levels | 18.9 ± 2.1 | 15.8 ± 2 | 120 |
| C[C@@H]1NC(=O)c2ccccc2-n2c1nc1ccccc1c2=O [circumdatin F] | decreased NO production only in high dose | 11.8 ± 0.9 | 10 ± 1.9 | 240 |
| COc1ccc2nc3n(c(=O)c2c1)-c1ccccc1C(=O)N1CCC[C@@H]31 [circumdatin H] | decreased NO production only in high dose | 33.3 ± 1.4 | 98 ± 5.7 | 95 |
| C[C@@H]1NC(=O)c2cc(O)ccc2-n2c1nc1ccccc1c2=O [circumdatin C] | decreased NO production only in high dose | 15.6 ± 2.3 | – | 85 |
